The values that follow come from publication PMC5785490, “Retinoic acid prevents immunogenicity of milk lipocalin Bos d 5 through binding to its immunodominant T-cell epitope” (Scientific Reports, 2018).

In this test the target is T1, Bos d 5 (bovine beta-lactoglobulin) (Bos taurus, UniProt P02754).
T1 construct: gene LGB; commercially available bovine beta-lactoglobulin (L0130, Sigma); globular protein of 162 amino acid residues
Put plainly: intrinsic tryptophan fluorescence quenching (pH […] °C), supported by ANS displacement assay. The class given is binding.

T1 sequence (P02754 17-178): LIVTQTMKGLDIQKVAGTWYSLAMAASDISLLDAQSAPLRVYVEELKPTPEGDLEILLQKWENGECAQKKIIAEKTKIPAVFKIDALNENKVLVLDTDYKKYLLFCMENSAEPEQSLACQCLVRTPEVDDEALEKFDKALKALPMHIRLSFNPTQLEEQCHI

`CC1=C(/C=C/C(C)=C/C=C/C(C)=C/C(=O)O)C(C)(C)CCC1` [RA, all trans-retinoic acid] showed a Kd of 6.1 µM.

What is called Kd is the free concentration of one partner at which half of the binding sites on the other are occupied at equilibrium, for simple one-to-one binding. Lower therefore signals a tighter complex.
